According to publication PMC5407577, “Functional and genetic evidence that nucleoside transport is highly conserved in Leishmania species: Implications for pyrimidine-based chemotherapy” (International Journal for Parasitology: Drugs and Drug …, 2017):
Like-named read-outs stand apart in the source and are kept apart here.

Assays:
LmexNT1 [1] = assay type: cell-based, Leishmania mexicana; conditions: inhibition of 1 μM [3H]-thymidine uptake, 20 s
LmexNT1 [2] = assay: [3H]-adenosine uptake by L. mexicana promastigotes; assay type: cell-based, Leishmania mexicana; conditions: inhibition of 0.05 μM [3H]-adenosine uptake; read-out: Ki
[3] = system: L. mexicana promastigotes; assay type: cell-based, Leishmania mexicana
Procedure, shortened: (§1)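 Mid-to-late log-phase parasites were washed and held at 10^8 cells ml^−1 in HEPES/bicarbonate buffer with glucose, pH 7.3, then incubated at ambient temperature with radiolabelled permeant, with or without unlabelled substrate or inhibitors. Uptake was stopped with ice-cold excess unlabelled permeant and oil centrifugation, then counted by scintillation; saturation, inhibition and time-course data fitted by regression, in triplicate.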

Lmex5F2′dURes = assay type: cell-based, Leishmania mexicana; conditions: 0.5 μM [3H]-uridine, 0.1 μM [3H]-adenosine, 0.25 μM [3H]-uracil
Procedure, shortened: as §1

Lmex5FURes = assay type: cell-based, Leishmania mexicana; conditions: 0.5 μM radiolabel
Procedure, shortened: as §1

LmexNT1 [4] = assay type: cell-based, Leishmania mexicana
Procedure, shortened: as §1

LmexUU1 = assay type: cell-based, Leishmania mexicana
Procedure, shortened: as §1

LmajUUT1 = assay: [3H]-uridine uptake by L. major promastigotes, high-affinity uracil-sensitive component; assay type: cell-based, Leishmania major; conditions: for Km: double reciprocal plot, n = 3, read-out: Km (1)
Procedure, shortened: as §1

LmajNT1 [5] = assay: [3H]-uridine uptake by L. major promastigotes, low-affinity component; assay type: cell-based, Leishmania major
Procedure, shortened: as §1

LmajNT1 [6] = assay: [3H]-thymidine uptake by L. major promastigotes; assay type: cell-based, Leishmania major; conditions: inhibition of 0.25 μM [3H]-thymidine uptake (total LmajNT1.1 + LmajNT1.2), 5 min
L. major promastigotes = assay: total [3H]-uridine uptake by L. major promastigotes; assay type: cell-based, Leishmania major
Experimental: (§2) Using the standard uptake technique as described for T. brucei and Leishmania species ([Wallace et al., 2002], [Al-Salabi and De Koning, 2005], [Gudin et al., 2006]), the dose- or time-dependent uptake of radiolabeled permeants was investigated.
(§3) Briefly, cells in the mid-to-late logarithmic stage of growth were harvested by centrifugation for 10 min at 1500×g. The cells were washed twice with transport assay buffer (AB: 33 mM HEPES, 98 mM NaCl, 4.6 mM KCl, 0.55 mM CaCl2, 0.07 mM MgSO4, 5.8 mM NaH2PO4, 0.3 mM MgCl2, 23 mM NaHCO3, 14 mM glucose, pH 7.3), resuspended at a density of 10^8 cells ml^−1 in AB, and left for 20–30 min at room temperature to recover from centrifugation stress. One hundred microliters of cell suspension was incubated at ambient temperature for a predetermined time with 100 μl radiolabeled test compound, in the presence or absence of unlabeled substrate or other competitive inhibitors. The incubation was terminated by the addition of ice-cold stop solution (AB containing saturating levels, usually 10 mM, of unlabeled permeant) and centrifugation through oil for 1 min at 13,000 × g. […] Radioactivity was determined by liquid scintillation counting in a Beckman LS6000 TA scintillation counter. Saturation data, inhibition data, and time courses were plotted to equations for linear or non-linear regression (hyperbolic or sigmoid curves), as appropriate. All experiments were performed in triplicate and on at least three independent occasions.

T. b. brucei strain B48 = assay: microbe, parasite or virus in culture; assay type: cell-based; conditions: Trypanosoma brucei, read-out: inhibition of 0.5 μM [3H]-uridine uptake, 250 μM inhibitor
Experimental: as §2
as §3, with “All experiments were performed in triplicate and on at least three independent occasions.” left out

Lmaj5F2′dURes = assay type: cell-based, Leishmania major; conditions: 0.25 μM [3H]-uridine, 0.5 μM [3H]-uracil
Experimental: as §2, §3

Lmaj5FURes = assay type: cell-based, Leishmania major; conditions: 0.5 μM radiolabel
Experimental: as §2, §3

LmajU1 = system: LmajU1; parameters: method as in Papageorgiou et al., 2005; conditions: ref Papageorgiou et al., 2005; cited from earlier work
LdNT1.1 = system: LdNT1.1; parameters: method as in Vasudevan et al., 1998; Landfear, 2001; conditions: ref Vasudevan et al., 1998; Landfear, 2001; cited from earlier work
LdNT1.2 = system: LdNT1.2; parameters: method as in Vasudevan et al., 1998; Landfear, 2001; conditions: ref Vasudevan et al., 1998; Landfear, 2001; cited from earlier work
[7] = biological target: P1 adenosine/inosine transporter; parameters: method as in De Koning and Jarvis, 1999; conditions: ref De Koning and Jarvis, 1999; cited from earlier work
[8] = inhibition of 0.25 μM [3H]-uridine uptake
[9] = [3H]-uridine, high affinity component

O=c1cc[nH]c(=O)[nH]1 [uracil]
Ki (LmexNT1 [1]): > 2500 µM
Ki (LmexNT1 [2]): > 2500 µM
inhibition of 0.25 μM [3H]-uridine transport ([3]; maximal inhibition, uracil up to 2.5 mM (Fig. 3B)): 48%
Ki ([3]; read-out: Ki, uracil-sensitive uridine transporter, partial inhibition of 0.25 μM [3H]-uridine uptake, n = 5): 25.7 ± 6.6 µM
uptake of radiolabel, reduced compared to WT control cells (Lmex5F2′dURes): unaffected
uptake of radiolabel, reduced compared to WT control cells (Lmex5F2′dURes; listed as [^3H]-uracil): not significantly different
uptake of radiolabel, lower than in WT control cells (Lmex5FURes): 90.2%
Ki (LmexNT1 [4]; inhibition of 0.25 μM [3H]-uridine uptake in the presence of 1 mM uracil): > 2500 µM
rate of transport (LmexUU1; 0.25 μM [3H]-uracil, linear to at least 10 min): 0.0020 ± 0.0002 pmol(10^7 cells)^−1s^−1
rate of transport (LmexUU1; 0.5 μM [3H]-uracil, linear over 10 min (Fig. 4B legend)): 0.0020 ± 0.0002 pmol(10^7 cells)^−1s^−1
rate of transport (LmexUU1; 1 μM [3H]-uracil, linear over 120 s): 0.0030 ± 0.0002 pmol(10^7 cells)^−1s^−1
inhibition of 0.5 μM [3H]-uracil transport (LmexUU1; 1 mM unlabeled uracil): 95%
Vmax (LmexUU1; [3H]-uracil): 0.088 ± 0.010 pmol(10^7 cells)^−1s^−1
Km (LmexUU1; [3H]-uracil, 4 min, n = 3): 29.7 ± 4.4 µM
Ki (LmajUUT1; [8]): 2.65 ± 0.6 µM
Ki (LmajNT1 [5]; [8]): > 1000 µM
Ki (LmajNT1 [6]): > 1000 µM
inhibition at 0.25 µM (L. major promastigotes; Leishmania major, 3 h, read-out: partial (maximal) inhibition of 0.25 μM [3H]-uridine transport): 77.2 ± 2.7%
inhibition at 250 µM (T. b. brucei strain B48): 75.7%
uptake of radiolabel, lower than in WT control cells (Lmaj5F2′dURes): 80%
uptake of radiolabel, lower than in WT control cells (Lmaj5F2′dURes; listed as [^3H]-uracil): 81.4%
uptake of radiolabel, lower than in WT control cells (Lmaj5FURes): 95.7%
Km (LmajU1): 0.32 µM

O=c1ccn([C@@H]2O[C@H](CO)[C@@H](O)[C@H]2O)c(=O)[nH]1 [uridine]
Ki (LmexNT1 [1]): 9.1 ± 0.6 µM
Ki (LmexNT1 [2]): 16.8 ± 1.3 µM
Km ([3]; read-out: Km for the uridine flux, total flux, no uracil, n = 5): 7.15 ± 0.9 µM
Vmax (LmexNT1 [4]; [3H]-uridine, in the presence of 1 mM uracil): 0.74 ± 0.13 pmol(10^7 cells)^−1s^−1
Km (LmexNT1 [4]; [3H]-uridine, measured in the presence of 1 mM uracil): 13.3 ± 2.4 µM
Ki (LmexUU1; inhibition of [3H]-uracil uptake, 4 min): 2 ± 0.5 µM
maximal inhibition of [3H]-uracil transport (LmexUU1; n = 3): approximately 85%
Vmax (1) (LmajUUT1; [9]): 0.036 ± 0.004 pmol(10^7 cells)^−1s^−1
Km (LmajUUT1; [3H]-uridine, high affinity component, listed as [^3H]-uridine): 3.12 ± 0.61 µM
Km (LmajUUT1; [9]): 3.1 ± 0.6 µM
Vmax (2) (LmajNT1 [5]; [3H]-uridine, low affinity component): 0.15 ± 0.04 pmol(10^7 cells)^−1s^−1
Km (LmajNT1 [5]; [3H]-uridine, low affinity component, n = 3, read-out: Km (2)): 33.5 ± 7.3 µM
Km (L. major promastigotes; n = 3, read-out: apparent Km (single Michaelis-Menten saturation plot)): 7.3 ± 1.3 µM
Km (LdNT1.1): 5 µM
Km (LdNT1.2): 40 µM
Ki [7]: 830 µM
